Reference: patent US12281122B1, “PI3K inhibitors” (Cogent Biosciences, Inc., priority 2023, dated 2025)
pIC50: −log10 of the molar value.

What was measured:
[1] = system: SKBR3 (PI3Kα-Wild Type) cell line; test: HTRF phospho-AKT(S473) cell assay in SKBR3 cells; type: cell-based, human; conditions: Homo sapiens, SK-BR-3, 2 hours compound incubation, PDGF-BB stimulated
Procedure, shortened: (§1)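 Cells plated overnight (T47D in RPMI/10% FBS/0.2 units/mL insulin; SKBR3 in McCoy's 5A/10% FBS), then given 12-point 1:3 compound series (top 5 μM T47D, 10 μM SKBR3; ≤0.5% DMSO) for 2 h at 37° C. SKBR3 stimulated with 70 ng/ml PDGF-BB for final 15 min. Lysate pAKT(S473) by HTRF; IC50 calculated.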

[2] = system: T47D (PI3Kα-H1047R) cell line; test: HTRF phospho-AKT(S473) cell assay in T47D cells; type: cell-based, human; conditions: Homo sapiens, 2 hours compound incubation
Procedure, shortened: as §1

[3] = HTRF phospho-AKT(S473), SKBR3 (PI3Kα-Wild Type) cells
[4] = HTRF phospho-AKT(S473), T47D (PI3Kα-H1047R) cells
[5] = SKBR3 (PI3Kα-Wild Type) cells, HTRF phospho-AKT(S473)
[6] = T47D (PI3Kα-H1047R) cells, HTRF phospho-AKT(S473)

## Cc1cc([C@@H](C)Nc2ccc(Cl)nc2C(=O)NS(C)(=O)=O)c2nc(N3CCN(c4ccnc(C5CC5)n4)CC3)n(C)c(=O)c2c1 [Compound 590, (R)-6-chloro-3-((1-(2-(4-(2-cyclopropylpyrimidin-4-yl)piperazin-1-yl)-3,6-dimethyl-4-oxo-3,4-dihydroquinazolin-8-yl)ethyl)amino)-N-(methylsulfonyl) picolinamide]
[1]; [3]
  pIC50: 5.30 to 6.00
[2]; [4]
  pIC50: > 6.60

## Cc1cc([C@@H](C)Nc2ccc(Cl)nc2C(=O)NS(C)(=O)=O)c2nc(N3CC[C@H](Oc4cnc(C)nc4)C3)n(C)c(=O)c2c1 [Compound 512, 6-chloro-3-(((R)-1-(3,6-dimethyl-2-((S)-3-((2-methylpyrimidin-5-yl)oxy)pyrrolidin-1-yl)-4-oxo-3,4-dihydroquinazolin-8-yl)ethyl)amino)-N-(methylsulfonyl) picolinamide]
[1]; [3]
  pIC50: 5.30 to 6.00
[2]; [4]
  pIC50: 6.30 to 6.60

## Cc1cc([C@@H](C)Nc2ccc(Cl)nc2C(=O)NS(C)(=O)=O)c2nc(-c3ccc(-c4cnn(C)c4)nc3)n(C)c(=O)c2c1 [Compound 241, (R)-6-chloro-3-((1-(3,6-dimethyl-2-(6-(1-methyl-1H-pyrazol-4-yl)pyridin-3-yl)-4-oxo-3,4-dihydroquinazolin-8-yl)ethyl)amino)-N-(methylsulfonyl) picolinamide]
[1]; [5]
  pIC50: 5.30 to 6.00
[2]; [6]
  pIC50: > 6.60

## Cc1cc([C@@H](C)Nc2ccc(Cl)nc2C(=O)NS(C)(=O)=O)c2nc(-c3ccc4nn(CCO)cc4c3)n(C)c(=O)c2c1 [Compound 797, (R)-6-chloro-3-((1-(2-(2-(2-hydroxyethyl)-2H-indazol-5-yl)-3,6-dimethyl-4-oxo-3,4-dihydroquinazolin-8-yl)ethyl)amino)-N-(methylsulfonyl) picolinamide]
[1]; [3]
  pIC50: 5.30 to 6.00
[2]; [4]
  pIC50: > 6.60

## COc1nc2cc(-c3nc4c([C@@H](C)Nc5ccc(Cl)nc5C(=O)NS(C)(=O)=O)cc(C)cc4c(=O)n3C)ccc2n1C [Compound 849, (R)-6-chloro-3-((1-(2-(2-methoxy-1-methyl-1H-benzo[d]imidazol-5-yl)-3,6-dimethyl-4-oxo-3,4-dihydroquinazolin-8-yl)ethyl)amino)-N-(methylsulfonyl) picolinamide]
[1]; SKBR3 (PI3Kα-Wild Type) cell line, phospho-AKT(S473) HTRF
  pIC50: ≤ 5.30
[2]; T47D (PI3Kα-H1047R) cell line, phospho-AKT(S473) HTRF
  pIC50: 6.30 to 6.60

## Cc1cc([C@@H](C)Nc2ccc(Cl)nc2C(=O)NS(C)(=O)=O)c2nc(N3CCN(c4ccc(N)nc4)CC3)n(C)c(=O)c2c1 [Compound 174, (R)-3-((1-(2-(4-(6-aminopyridin-3-yl)piperazin-1-yl)-3,6-dimethyl-4-oxo-3,4-dihydroquinazolin-8-yl)ethyl)amino)-6-chloro-N-(methylsulfonyl) picolinamide]
[1]; [5]
  pIC50: 5.30 to 6.00
[2]; [6]
  pIC50: > 6.60

## Cc1cc([C@@H](C)Nc2ccc(Cl)nc2C(=O)NS(C)(=O)=O)c2nc([C@H]3[C@@H]4CN(c5ncc(F)cn5)C[C@@H]43)n(C)c(=O)c2c1 [Compound 827, 6-chloro-3-(((R)-1-(2-((1R,5S,6r)-3-(5-fluoropyrimidin-2-yl)-3-azabicyclo[3.1.0]hexan-6-yl)-3,6-dimethyl-4-oxo-3,4-dihydroquinazolin-8-yl)ethyl)amino)-N-(methylsulfonyl) picolinamide]
[1]; [3]
  pIC50: ≤ 5.30
[2]; [4]
  pIC50: 6.00 to 6.30

## Cc1cc([C@@H](C)Nc2ccc(Cl)nc2C(=O)NS(C)(=O)=O)c2nc(N3CC[C@H](c4cnc(C)nc4)C3)n(C)c(=O)c2c1 (relative stereo) [Compound 658, 6-chloro-3-(((R)-1-(3,6-dimethyl-2-((R*)-3-(2-methylpyrimidin-5-yl)pyrrolidin-1-yl)-4-oxo-3,4-dihydroquinazolin-8-yl)ethyl)amino)-N-(methylsulfonyl) picolinamide]
[1]; [3]
  pIC50: ≤ 5.30
[2]; [4]
  pIC50: 6.00 to 6.30

## CCn1c(N2CCc3nn(C)cc3C2)nc2c([C@@H](C)Nc3ccc(Cl)nc3C(=O)NS(C)(=O)=O)cc(C)cc2c1=O [Compound 546, (R)-6-chloro-3-((1-(3-ethyl-6-methyl-2-(2-methyl-2,4,6,7-tetrahydro-5H-pyrazolo[4,3-c]pyridin-5-yl)-4-oxo-3,4-dihydroquinazolin-8-yl)ethyl)amino)-N-(methylsulfonyl) picolinamide]
[1]; [3]
  pIC50: 5.30 to 6.00
[2]; [4]
  pIC50: > 6.60

## Cc1cc([C@@H](C)Nc2ccc(Cl)nc2C(=O)NS(C)(=O)=O)c2nc(N3CCc4cn(CC(F)(F)F)nc4C3)n(C)c(=O)c2c1 [Compound 214, (R)-6-chloro-3-((1-(3,6-dimethyl-4-oxo-2-(2-(2,2,2-trifluoroethyl)-2,4,5,7-tetrahydro-6H-pyrazolo[3,4-c]pyridin-6-yl)-3,4-dihydroquinazolin-8-yl)ethyl)amino)-N-(methylsulfonyl) picolinamide]
[1]; [5]
  pIC50: 5.30 to 6.00
[2]; [6]
  pIC50: > 6.60

## Cc1cc([C@@H](C)Nc2ccc(Cl)nc2C(=O)NS(C)(=O)=O)c2nc(N3CC[C@@H](Oc4cnn(CC(F)(F)F)c4)C3)n(C)c(=O)c2c1 [Compound 329, 6-chloro-3-(((R)-1-(3,6-dimethyl-4-oxo-2-((R)-3-((1-(2,2,2-trifluoroethyl)-1H-pyrazol-4-yl)oxy)pyrrolidin-1-yl)-3,4-dihydroquinazolin-8-yl)ethyl)amino)-N-(methylsulfonyl) picolinamide]
[1]; [5]
  pIC50: 5.30 to 6.00
[2]; [6]
  pIC50: > 6.60

## Cc1cc([C@@H](C)Nc2ccc(Cl)nc2C(=O)NS(C)(=O)=O)c2nc(N3CC[C@H](c4cnc(C)c(C#N)c4)C3)n(C)c(=O)c2c1 (single isomer, unassigned) [Compound 655, 6-chloro-3-(((R)-1-(2-((R*)-3-(5-cyano-6-methylpyridin-3-yl)pyrrolidin-1-yl)-3,6-dimethyl-4-oxo-3,4-dihydroquinazolin-8-yl)ethyl)amino)-N-(methylsulfonyl) picolinamide]
[1]; [3]
  pIC50: ≤ 5.30
[2]; [4]
  pIC50: 5.30 to 6.00

## Cc1cc([C@@H](C)Nc2ccc(Cl)nc2C(=O)NS(C)(=O)=O)c2nc(N3CCN(c4cc(C)n(C)n4)CC3)n(C)c(=O)c2c1 [Compound 634, (R)-6-chloro-3-((1-(2-(4-(1,5-dimethyl-1H-pyrazol-3-yl)piperazin-1-yl)-3,6-dimethyl-4-oxo-3,4-dihydroquinazolin-8-yl)ethyl)amino)-N-(methylsulfonyl) picolinamide]
[1]; [3]
  pIC50: ≤ 5.30
[2]; [4]
  pIC50: > 6.60

## Cc1cc([C@@H](C)Nc2ccc(Cl)nc2C(=O)NS(C)(=O)=O)c2nc(N3CCC[C@H](c4ccc(N)cn4)C3)n(C)c(=O)c2c1 (relative stereo) [Compound 307, 3-(((R)-1-(2-((R*)-3-(5-aminopyridin-2-yl)piperidin-1-yl)-3,6-dimethyl-4-oxo-3,4-dihydroquinazolin-8-yl)ethyl)amino)-6-chloro-N-(methylsulfonyl) picolinamide]
[1]; [5]
  pIC50: ≤ 5.30
[2]; [6]
  pIC50: > 6.60

## Cc1cc([C@@H](C)Nc2ccc(Cl)nc2C(=O)NS(C)(=O)=O)c2nc(N3C[C@@H]4[C@H](C3)[C@H]4c3cn(C)nc3C)n(C)c(=O)c2c1 [Compound 430, 6-chloro-3-(((R)-1-(2-((1R,5S,6S)-6-(1,3-dimethyl-1H-pyrazol-4-yl)-3-azabicyclo[3.1.0]hexan-3-yl)-3,6-dimethyl-4-oxo-3,4-dihydroquinazolin-8-yl)ethyl)amino)-N-(methylsulfonyl) picolinamide]
[1]; [5]
  pIC50: 5.30 to 6.00
[2]; [6]
  pIC50: > 6.60

## Cc1cc([C@@H](C)Nc2ccc(Cl)nc2C(=O)NS(C)(=O)=O)c2nc(N3CCC(c4ncc(C)nc4C)CC3)n(C)c(=O)c2c1 [Compound 525, (R)-6-chloro-3-((1-(2-(4-(3,5-dimethylpyrazin-2-yl)piperidin-1-yl)-3,6-dimethyl-4-oxo-3,4-dihydroquinazolin-8-yl)ethyl)amino)-N-(methylsulfonyl) picolinamide]
[1]; [3]
  pIC50: ≤ 5.30
[2]; [4]
  pIC50: > 6.60

## COc1cc([C@H]2[C@@H]3CN(c4nc5c([C@@H](C)Nc6ccc(Cl)nc6C(=O)NS(C)(=O)=O)cc(C)cc5c(=O)n4C)C[C@@H]32)ccn1 [Compound 474, 6-chloro-3-(((R)-1-(2-((1R,5S,6S)-6-(2-methoxypyridin-4-yl)-3-azabicyclo[3.1.0]hexan-3-yl)-3,6-dimethyl-4-oxo-3,4-dihydroquinazolin-8-yl)ethyl)amino)-N-(methylsulfonyl) picolinamide]
[1]; [3]
  pIC50: ≤ 5.30
[2]; [4]
  pIC50: 6.30 to 6.60

## Cc1cc([C@@H](C)Nc2ccc(Cl)nc2C(=O)NS(C)(=O)=O)c2nc(N3Cc4cn(CC(C)(C)O)nc4C3)n(C)c(=O)c2c1 [Compound 216, (R)-6-chloro-3-((1-(2-(2-(2-hydroxy-2-methylpropyl)-2,6-dihydropyrrolo[3,4-c]pyrazol-5(4H)-yl)-3,6-dimethyl-4-oxo-3,4-dihydroquinazolin-8-yl)ethyl)amino)-N-(methylsulfonyl) picolinamide]
[1]; [5]
  pIC50: 5.30 to 6.00
[2]; [6]
  pIC50: > 6.60

## Cc1cc([C@@H](C)Nc2ccc(Cl)nc2C(=O)NS(C)(=O)=O)c2nc(N3C[C@@H]4[C@H](C3)[C@H]4c3cnc(C)c(F)c3)n(C)c(=O)c2c1 [Compound 423, 6-chloro-3-(((R)-1-(2-((1R,5S,6S)-6-(5-fluoro-6-methylpyridin-3-yl)-3-azabicyclo[3.1.0]hexan-3-yl)-3,6-dimethyl-4-oxo-3,4-dihydroquinazolin-8-yl)ethyl)amino)-N-(methylsulfonyl) picolinamide]
[1]; [5]
  pIC50: ≤ 5.30
[2]; [6]
  pIC50: 6.30 to 6.60
